Source: patent US20240083910A1, “AMIDO-SUBSTITUTED PYRIDYL COMPOUNDS AND METHODS OF USE THEREOF FOR THE TREATMENT OF HERPESVIRUSES” (Merck Sharp & Dohme LLC, priority 2020, published 2024)
Like-named read-outs stand apart in the source and are kept apart here.

Assays:
[1] = molecular target: T1, Human cytomegalovirus DNA polymerase (Human cytomegalovirus, UniProt P08546); test: CMV polymerase assay (AlphaLISA); type: biochemical; conditions: HCMV polymerase 0.2 nM; 30 min pre-incubation; 60 min at 37° C.; read-out: CMV (IC50)
T1 construct: made in house; host or cells: SF21 insect cells (baculovirus vector)
T1 sequence (P08546 whole entry): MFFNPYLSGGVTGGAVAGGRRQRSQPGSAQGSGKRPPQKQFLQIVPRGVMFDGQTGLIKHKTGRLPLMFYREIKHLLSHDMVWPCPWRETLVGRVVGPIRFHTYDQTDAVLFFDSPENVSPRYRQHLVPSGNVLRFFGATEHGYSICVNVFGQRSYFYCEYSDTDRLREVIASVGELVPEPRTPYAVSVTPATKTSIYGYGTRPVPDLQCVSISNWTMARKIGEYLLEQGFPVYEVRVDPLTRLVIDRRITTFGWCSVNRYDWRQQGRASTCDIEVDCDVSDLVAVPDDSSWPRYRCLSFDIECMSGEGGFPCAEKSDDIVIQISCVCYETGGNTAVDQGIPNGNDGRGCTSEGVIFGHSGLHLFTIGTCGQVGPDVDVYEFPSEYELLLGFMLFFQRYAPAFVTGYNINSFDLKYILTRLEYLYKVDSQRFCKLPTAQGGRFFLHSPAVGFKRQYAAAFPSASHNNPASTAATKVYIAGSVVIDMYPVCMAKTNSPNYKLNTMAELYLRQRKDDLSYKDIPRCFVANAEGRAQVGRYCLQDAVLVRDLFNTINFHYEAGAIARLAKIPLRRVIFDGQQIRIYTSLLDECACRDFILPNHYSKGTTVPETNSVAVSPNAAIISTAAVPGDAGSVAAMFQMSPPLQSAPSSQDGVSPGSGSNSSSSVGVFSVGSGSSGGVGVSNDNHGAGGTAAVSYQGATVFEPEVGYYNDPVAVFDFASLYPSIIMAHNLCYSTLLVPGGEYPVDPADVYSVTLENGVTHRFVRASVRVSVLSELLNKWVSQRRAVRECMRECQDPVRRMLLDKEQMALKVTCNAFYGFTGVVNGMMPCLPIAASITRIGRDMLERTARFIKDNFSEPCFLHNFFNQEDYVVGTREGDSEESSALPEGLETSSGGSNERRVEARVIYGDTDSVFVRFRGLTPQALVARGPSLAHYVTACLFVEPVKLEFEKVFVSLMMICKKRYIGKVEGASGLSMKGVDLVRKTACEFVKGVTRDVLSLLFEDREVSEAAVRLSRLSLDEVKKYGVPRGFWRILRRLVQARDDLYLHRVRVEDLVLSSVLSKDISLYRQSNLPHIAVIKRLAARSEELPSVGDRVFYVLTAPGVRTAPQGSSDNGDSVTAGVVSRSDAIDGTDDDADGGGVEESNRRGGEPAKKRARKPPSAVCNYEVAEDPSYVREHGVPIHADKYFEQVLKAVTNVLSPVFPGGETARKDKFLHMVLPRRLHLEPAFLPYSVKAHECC
Description: Human cytomegalovirus and varicella zoster virus DNA polymerases were expressed via baculovirus vector in SF21 cells and purified. Heterodimeric nucleic acid substrate used in the herpesvirus polymerase reactions was generated by annealing a 59-mer template to a 17-mer digoxigenin-labeled primer. Polymerase (HCMV final concentration of 0.2 nM; VZV final concentration of 0.4 nM) was combined with an inhibitor compound or DMSO in assay buffer (10 mM HEPES, pH 7.5, 25 mM KCl, 25 mM NaCl, 5 mM MgCl2, 5% glycerol, 0.67 mg/ml bovine serum albumin, and 1 mM tris(2-carboxyethyl)phosphine), and this mixture was pre-incubated for 30 minutes at room temperature in 384-well microtiter plates. The polymerization reaction was initiated by the addition of template/primer substrate (final concentration: 1.6 nM), and dNTPs (final concentration: 24 nM dCTP, 24 nMdGTP, 16 nM dATP, 16 nM dTTP, and 0.8 nM biotin-dUTP). After 60 min incubation at 37° C., reactions were terminated with quench buffer (25 mM HEPES pH 7.5, 100 mM NaCl, 0.25% Tween-20, 12 mM EDTA, and 1 mg/ml bovine serum albumin). Incorporation of biotinylated UTP was detected with 2.5-5 ug/ml anti-DIG AlphaLISA acceptor beads and 5-10 ug/ml streptavidin AlphaLISA donor beads (PerkinElmer). Compound effects were normalized to the window defined by the controls (DMSO only and pre-quenched wells) and were fit using a 4-parameter algorithm to report an IC50.

[2] = system: HCMV Strain AD169; test: Viral qPCR assay, HCMV; type: cell-based, Human cytomegalovirus; conditions: MRC-5 cells, 0.05-0.1 pfu/cell, growth media or 50% fetal bovine serum, viral genome copies by qPCR, read-out: CMV Cell (EC50)
Description: (§1) MRC5 cells, Vero cells, and MeWo cells were obtained from ATCC, and were maintained at 37° C./5% CO2/90% relative humidity in Minimal Essential Medium with 10% fetal bovine serum, […] L-glutamine, 100 units/ml penicillin and 100 ug/ml streptomycin. Assay plates were prepared by dispensing compounds dissolved in DMSO into wells of 384 well collagen-coated plates using an ECHO acoustic dispenser. Each compound was tested in a 10-point, serial 3-fold dilution. Controls included uninfected cells and infected cells treated only with DMSO. Assays were initiated by mixing selected cells, in suspension, with virus, and dispensing 50 μl/well infected cells to pre-plated compounds. Plates were incubated at 37° C./5% CO2/90% relative humidity for ˜72 hrs to permit genomic replication, and infected cells were lysed by the addition of an equal volume of lysis buffer (10 mM Tris-HCl, pH8, 50 mM KCl, 2 mM MgCl2, 0.45% NP-40, 0.45% Tween-20, and 100 μg/ml proteinase K). An aliquot of the lysate was transferred to a 384-well PCR plate and incubated at 56° C. for 1 hour and then at 95° C. for 10 min. Levels of a viral gene and of the cellular control, PPIA (Thermo Fisher Assay ID=Hs04194521_s1), were measured in separate 10 ul qPCR assays using TaqMan® Gene Expression Master Mix (Applied Biosystems), and an 7900HT Fast Real-Time PCR System with 384-Well Block Module. 7-point, serial 10-fold dilutions of a plasmid standard were run on each plate to generate a standard curve, and genome copies numbers were calculated by plotting experimental Ct onto linear regression of the standard curve. Viral genome copy numbers were normalized by cellular control copy number, and compound effects were normalized to the window defined by the controls. Calculated % effects were fit using a 4-parameter algorithm, and EC50 was reported.
(§2) MRC5 cells, Vero cells, and MeWo cells were obtained from ATCC, and were maintained at 37° C./5% CO2/90% relative humidity in Minimal Essential Medium with 10% fetal bovine serum, […] L-glutamine, 100 units/ml penicillin and 100 ug/ml streptomycin. Assay plates were prepared by dispensing compounds dissolved in DMSO into wells of 384 well collagen-coated plates using an ECHO acoustic dispenser. Each compound was tested in a 10-point, serial 3-fold dilution. Controls included uninfected cells and infected cells treated only with DMSO. Assays were initiated by mixing selected cells, in suspension, with virus, and dispensing 50 μl/well infected cells to pre-plated compounds. Plates were incubated at 37° C./5% CO2/90% relative humidity for ˜72 hrs to permit genomic replication, and infected cells were lysed by the addition of an equal volume of lysis buffer (10 mM Tris-HCl, pH 8, 50 mM KCl, 2 mM MgC12, 0.45% NP-40, 0.45% Tween-20, and 100 μg/ml proteinase K). An aliquot of the lysate was transferred to a 384-well PCR plate and incubated at 56° C. for 1 hour and then at 95° C. for 10 min. Levels of a viral gene were measured in 10 ul qPCR assays using TaqMan® Gene Expression Master Mix (Applied Biosystems), and an 7900HT Fast Real-Time PCR System with 384-Well Block Module. 7-point, serial 10-fold dilutions of a plasmid standard were run on each plate to generate a standard curve, and genome copies numbers were calculated by plotting experimental Ct onto linear regression of the standard curve. Compound effects on viral genome copy number were normalized to the window defined by the controls. Calculated % effects were fit using a 4-parameter algorithm, and ECso was reported.
HCMV: Strain AD169 Street was assayed in MRC-5 cells and was used at 0.05-0.1 pfu/cell. The assays were performed in either growth media or in the same media with 50% fetal bovine serum. Primer-probe set was Thermo Fisher Assay ID=AIFATFK.

[3] = system: VZV; test: Viral qPCR assay, VZV; type: cell-based, varicella zoster virus; conditions: MeWo or MRC5 cells, 0.04-0.1 pfu/cell, growth medium, viral genome copies by qPCR
Description: as §1, §2
VZV: Strain Street was maintained as an infected cell stock in MRC-5 cells. It was assayed in MeWo or MRC5 cells and was used at 0.04-0.1 pfu/cell. The assays were performed in growth medium. Primer-probe set was Thermo Fisher Assay ID=AIPAEXQ.

[4] = system: HSV-1 Strain F; test: Viral qPCR assay, HSV-1; type: cell-based, Herpes Simplex Virus type 1; conditions: Vero or MRC5 cells, 0.0005-0.004 pfu/cell, growth medium, viral genome copies by qPCR, read-out: HSV1 Cell (EC50)
Description: as §1, §2
HSV-1: Strain F […] was assayed in Vero or MRC5 cells and was used at 0.0005-0.004 pfu/cell in growth medium. Primer-probe set was Thermo Fisher Assay ID=AIBJZIB

[5] = Human betaherpesvirus 5, AD169, MRC5, 72 h

Structure (SMILES)	IC50 [1] [µM]	EC50 [2, 5] [µM]	EC50 ([3]; Human alphaherpesvirus 3, 72 h) [µM]	EC50 ([4]; Human alphaherpesvirus 1, 72 h) [µM]	EC50 ([3]; ~72 hrs) [µM]	EC50 ([2]; ~72 hrs) [µM]	EC50 ([4]; ~72 hrs) [µM]
COc1nc(-c2cnn(C(F)F)c2)c(O[C@H]2CCN3C(=O)OC[C@@H]3C2)cc1C(=O)NCc1cc(F)c(Cl)c(F)c1 [Compound 57]	0.00613	0.538	0.364	0.207	–	–	–
COc1nc(-c2cnn(C(F)F)c2)c(O[C@H]2CCN3C(=O)OC[C@@H]3C2)cc1C(=O)NCc1ccc(C#N)cc1F [Compound 59]	0.00325	0.324	0.16	0.0806	–	–	–
COc1nc(-c2cnc(C3CC3)s2)c(O[C@H]2CCN3C(=O)OC[C@@H]3C2)cc1C(=O)NCc1ccc(Cl)cc1 [Compound 63]	0.00874	0.164	0.167	0.148	–	–	–
COc1nc(-c2ncco2)c(O[C@H]2CCN3C(=O)OC[C@@H]3C2)cc1C(=O)N[C@@H](C)c1ccc(Cl)cc1 [Compound 64]	0.0693	0.911	1.56	0.597	–	–	–
COc1nc(N2CC3(CC(O)C3)C2)c(O[C@H]2CCN3C(=O)OC[C@@H]3C2)cc1C(=O)NCc1ccc(Cl)cc1 [Compound 66]	0.00523	0.146	0.648	0.262	–	–	–
COc1nc(N2CCC(C(C)(C)O)C2)c(O[C@H]2CCN3C(=O)OC[C@@H]3C2)cc1C(=O)NCc1ccc(Cl)cc1 (stereo partly shown) [Compound 67]	0.0229	0.368	–	0.568	2.27	–	–
COc1nc(N2CCC(C(C)(C)O)C2)c(O[C@H]2CCN3C(=O)OC[C@@H]3C2)cc1C(=O)NCc1ccc(Cl)cc1 (stereo partly shown) [Compound 68]	0.0287	–	–	–	0.661	0.265	0.654
COc1nc(CC(C)(C)O)c(O[C@H]2CCN3C(=O)OC[C@@H]3C2)cc1C(=O)NCc1ccc(Cl)cc1 [Compound 73]	0.0209	0.339	0.828	0.575	–	–	–
COc1nc(C2CC3(CC(O)C3)C2)c(O[C@H]2CCN3C(=O)OC[C@@H]3C2)cc1C(=O)NCc1ccc(Cl)cc1 (stereo partly shown) [Compound 76]	0.0321	0.519	0.778	0.293	–	–	–
COc1nc(CC(C)(C)N)c(O[C@H]2CCN3C(=O)OC[C@@H]3C2)cc1C(=O)NCc1ccc(Cl)cc1 [Compound 81]	0.0886	0.558	3.65	2.88	–	–	–
Cc1nsc(-c2nc(OCC(C)(C)O)c(C(=O)NCc3ccc(Cl)cc3)cc2O[C@H]2CCN3C(=O)OC[C@@H]3C2)n1 [Compound 87]	0.00513	0.108	0.207	0.14	–	–	–
CN(C)CCOc1nc(-c2cnn(C(F)F)c2)c(O[C@H]2CCN3C(=O)OC[C@@H]3C2)cc1C(=O)NCc1ccc(Cl)cc1 [Compound 88]	0.00316	0.0325	0.317	0.257	–	–	–
O=C(NCc1ccc(Cl)cc1)c1cc(O[C@H]2CCN3C(=O)OC[C@@H]3C2)c(-c2cnn(C(F)F)c2)nc1OCCF [Compound 89]	0.0121	0.195	0.246	0.203	–	–	–
CC1(COc2nc(-c3cnn(C(F)F)c3)c(O[C@H]3CCN4C(=O)OC[C@@H]4C3)cc2C(=O)NCc2ccc(Cl)cc2)COC1 [Compound 90]	0.00983	0.131	0.286	0.18	–	–	–
O=C(NCc1ccc(Cl)cc1)c1cc(O[C@H]2CCN3C(=O)OC[C@@H]3C2)c(-c2cnn(C(F)F)c2)nc1OCC1CC1(F)F (stereo partly shown) [Compound 91]	0.0185	0.271	0.569	0.346	–	–	–
CC(C)(C#N)COc1nc(-c2cnn(C(F)F)c2)c(O[C@H]2CCN3C(=O)OC[C@@H]3C2)cc1C(=O)NCc1ccc(Cl)cc1 [Compound 92]	0.00731	0.137	0.417	0.229	–	–	–
CC(O)COc1nc(-c2cnn(C(F)F)c2)c(O[C@H]2CCN3C(=O)OC[C@@H]3C2)cc1C(=O)NCc1ccc(Cl)cc1 (stereo partly shown) [Compound 93]	0.00462	0.204	0.25	0.0591	–	–	–
CN1C(=O)NC[C@@H]1COc1nc(-c2cnn(C(F)F)c2)c(O[C@H]2CCN3C(=O)OC[C@@H]3C2)cc1C(=O)NCc1ccc(Cl)cc1 [Compound 94]	0.00515	0.52	2.18	0.773	–	–	–
CN(C)CCCOc1nc(-c2cnn(C(F)F)c2)c(O[C@H]2CCN3C(=O)OC[C@@H]3C2)cc1C(=O)NCc1ccc(Cl)cc1 [Compound 95]	0.00146	0.151	0.463	0.141	–	–	–
CCN(CC)CCOc1nc(-c2cnn(C(F)F)c2)c(O[C@H]2CCN3C(=O)OC[C@@H]3C2)cc1C(=O)NCc1ccc(Cl)cc1 [Compound 96]	0.00272	0.0759	0.4	0.148	–	–	–
CN1CCN(CCCOc2nc(-c3cnn(C(F)F)c3)c(O[C@H]3CCN4C(=O)OC[C@@H]4C3)cc2C(=O)NCc2ccc(Cl)cc2)CC1 [Compound 98]	0.0141	0.115	0.617	0.29	–	–	–
O=C1CC[C@@H](COc2nc(-c3cnn(C(F)F)c3)c(O[C@H]3CCN4C(=O)OC[C@@H]4C3)cc2C(=O)NCc2ccc(Cl)cc2)N1 [Compound 99]	0.00467	0.282	1.31	0.493	–	–	–
